Laboratory results taken from patent publication US4401812A, “Anthracycline antibiotics” (Hoffmann-La Roche Inc., priority 1980, dated 1983).
≈ marks a conversion by molar mass, not a printed value. Like-named read-outs stand apart in the source and are kept apart here.

Assays:
[1] = tested on: Staphylococcus aureus 209P IAM-1011; experiment: in vitro MIC, agar streak method; format: cell-based; settings: Heart infusion agar, read-out: MIC
[2] = tested on: Sarcina lutea IAM1009; experiment: in vitro MIC, agar streak method; format: cell-based; settings: Micrococcus luteus, IAM1009, Sarcina lutea IAM-1009; Heart infusion agar; read-out: MIC
[3] = tested on: P388 leukaemia; experiment: Antitumor effect against P388 leukaemia in CDF1 mice; format: in vivo; settings: Mus musculus, read-out: Mean survival (T/C, %); for response vs control in vivo at 1.88 mg/kg: 1.88 mg/kg/day i.p.; for response vs control in vivo at 3.75 mg/kg: 3.75 mg/kg/day i.p.; for response vs control in vivo at 7.5 mg/kg: 7.5 mg/kg/day i.p.; for response vs control in vivo at 15 mg/kg: 15.0 mg/kg/day i.p.
Description: The anthracycline glycosides provided by the present invention were tested against P388 leukaemia in mice. When CDF1 mice are inoculated with 1×10^6 cells of P388 intraperitoneally and each of the antibiotics is administered intraperitoneally on days 1, 5 and 9, the survival time of the treated mice is prolonged as shown in Table 5 hereinafter.

[4] = tested on: Micrococcus flavus ATCC-10240; experiment: in vitro MIC, agar streak method; format: cell-based
Excerpt: (§1) | ^(1) Heart infusion agar

[5] = tested on: Staphylococcus aureus 209P Stf; experiment: in vitro MIC, agar streak method; format: cell-based; settings: Heart infusion agar
Excerpt: as §1

[6] = tested on: Escherichia coli K-12 IAM-1264; experiment: in vitro MIC, agar streak method; format: cell-based; settings: IAM1264
Excerpt: as §1

[7] = tested on: Mycobacterium smegmatis IFO-13167; experiment: in vitro MIC, agar streak method; format: cell-based; settings: Mycolicibacterium smegmatis, IFO13167
Excerpt: as §1

[8] = tested on: Pseudomonas aeruginosa IFO-12689; experiment: in vitro MIC, agar streak method; format: cell-based; settings: IFO12689, Heart infusion agar
Excerpt: as §1

[9] = tested on: Escherichia coli NIHJ IFO-12734; experiment: in vitro MIC, agar streak method; format: cell-based; settings: IFO12734
Excerpt: as §1

[10] = tested on: Bacillus subtilis IAM-1027; experiment: in vitro MIC, agar streak method; format: cell-based; settings: IAM1027
Excerpt: as §1

[11] = in vivo; settings: mouse, ip, mice, single i.p. injection, judged 72 hours after, read-out: acute intraperitoneal LD50
Description: The acute intraperitoneal LD50 in mice judged 72 hours after a single injection of the antibiotics is about 90 mg/kg for auramycin C, auramycin D, sulfurmycin C and sulfurmycin D, 40~80 mg/kg for auramycin G and sulfurmycin G and 20~40 mg/kg for auramycin E and sulfurmycin E.

[12] = tested on: Candida tropicalis ATCC-13803; experiment: in vitro MIC, agar streak method; format: cell-based; settings: ATCC13803
Excerpt: (§2) | ^(2) Sabouraud dextrose agar

[13] = tested on: Candida albicans ATCC-10231; experiment: in vitro MIC, agar streak method; format: cell-based; settings: ATCC10231
Excerpt: as §2

[14] = tested on: Staphylococcus epidermidis IFO-12993; experiment: in vitro MIC, agar streak method; format: cell-based; settings: Staphylococcus epidermidis IFO-12993, Heart infusion agar
Excerpt: as §1

[15] = tested on: Bacillus cereus Rol79B; experiment: in vitro MIC, agar streak method; format: cell-based; settings: Heart infusion agar, read-out: MIC
Excerpt: as §1

[16] = ip, days 1, 5 and 9, 1×10^6 P388 cells i.p., CDF1 mice
[17] = Micrococcus flavus, ATCC10240, Micrococcus flavus ATCC-10240, Heart infusion agar, read-out: MIC
[18] = Escherichia coli K-12 IAM-1264, Heart infusion agar, read-out: MIC
[19] = Mycobacterium smegmatis IFO-13167, Heart infusion agar, read-out: MIC
[20] = Escherichia coli NIHJ IFO-12734, Heart infusion agar, read-out: MIC
[21] = Bacillus subtilis IAM-1027, Heart infusion agar, read-out: MIC
[22] = Candida tropicalis ATCC-13803, Sabouraud dextrose agar, read-out: MIC
[23] = Candida albicans ATCC-10231, Sabouraud dextrose agar, read-out: MIC
[24] = ATCC10240, Micrococcus flavus ATCC-10240, Heart infusion agar, read-out: MIC

Row | Compound | MIC ([1]; Staphylococcus aureus) [µg/mL] | MIC [2] [µg/mL] | response vs control in vivo at 1.88 mg/kg [3, 16] [%] | response vs control in vivo at 3.75 mg/kg [3, 16] [%] | response vs control in vivo at 7.5 mg/kg [3, 16] [%] | response vs control in vivo at 15 mg/kg [3, 16] [%] | MIC [4, 17] [µg/mL] | MIC [5] [µg/mL] | MIC [6, 18] [µg/mL] | MIC [7, 19] [µg/mL] | MIC [8] [µg/mL] | MIC [9, 20] [µg/mL] | MIC [10, 21] [µg/mL] | LD50 at 72 h [11] [mg/kg] | MIC [12, 22] [µg/mL] | MIC [13, 23] [µg/mL] | MIC [15] [µg/mL] | MIC [1] [µg/mL] | MIC [4, 24] [µg/mL] | other results
1 | COC(=O)C1c2cc3c(c(O)c2C(OC2CC(N(C)C)C(O)C(C)O2)CC1(O)CC(C)=O)C(=O)c1c(O)cccc1C3=O (stereo not shown) [Sulfurmycin D] | 25 (≈ 41.8 µM) | 25 (≈ 41.8 µM) | 106 | 135 | 128 | 152 | 25 (≈ 41.8 µM) | 25 (≈ 41.8 µM) | > 50 | 6.25 (≈ 10.5 µM) | > 50 | > 50 | 12.5 (≈ 20.9 µM) | ~90 | > 50 | > 50 |  |  |  | 
2 | COC(=O)C1c2cc3c(c(O)c2C(OC2CC(N(C)C)C(OC4CC(O)C(OC5CCC(O)C(C)O5)C(C)O4)C(C)O2)CC1(O)CC(C)=O)C(=O)c1c(O)cccc1C3=O (stereo not shown) [Sulfurmycin E] | 3.12 (≈ 3.71 µM) | 3.12 (≈ 3.71 µM) |  |  |  |  | 3.12 (≈ 3.71 µM) |  | > 50 |  |  | > 50 | 3.12 (≈ 3.71 µM) | 20 to 40 | > 50 | > 50 | 0.39 (≈ 0.463 µM) |  |  | response vs control in vivo at 1.5 mg/kg ([3]; ip, 1.5 mg/kg/day i.p., days 1, 5 and 9, 1×10^6 P388 cells i.p., CDF1 mice): 133%; response vs control in vivo at 3 mg/kg ([3]; ip, 3.0 mg/kg/day i.p., days 1, 5 and 9, 1×10^6 P388 cells i.p., CDF1 mice): 140%; response vs control in vivo at 6 mg/kg ([3]; ip, 6.0 mg/kg/day i.p., days 1, 5 and 9, 1×10^6 P388 cells i.p., CDF1 mice): 150%; response vs control in vivo at 12 mg/kg ([3]; ip, 12.0 mg/kg/day i.p., days 1, 5 and 9, 1×10^6 P388 cells i.p., CDF1 mice): 165%; MIC [14]: 1.56 µg/mL (≈ 1.85 µM)
3 | COC(=O)C1c2cc3c(c(O)c2C(OC2CC(N(C)C)C(OC4CCC(OC5CCC(O)C(C)O5)C(C)O4)C(C)O2)CC1(O)CC(C)=O)C(=O)c1c(O)cccc1C3=O (stereo not shown) [Sulfurmycin G] |  | 12.5 (≈ 15.1 µM) |  |  |  |  |  |  |  |  |  |  |  | 40 to 80 |  |  | 0.39 (≈ 0.472 µM) | 6.25 (≈ 7.57 µM) |  | response vs control in vivo at 1.5 mg/kg ([3]; P388, ip): 104%; response vs control in vivo at 3 mg/kg ([3]; P388, ip): 112%; response vs control in vivo at 6 mg/kg ([3]; P388, ip): 113%; response vs control in vivo at 12 mg/kg ([3]; P388, ip): 123%; response vs control in vivo at 24 mg/kg ([3]; P388, ip): 144%; MIC ([4]; Micrococcus flavus, ATCC10240): 12.5 µg/mL (≈ 15.1 µM); MIC ([14]; IFO12993, read-out: MIC): 12.5 µg/mL (≈ 15.1 µM); MIC ([6]; Escherichia coli): > 50 µg/mL; MIC ([9]; Escherichia coli): > 50 µg/mL; MIC ([10]; Bacillus subtilis): 6.25 µg/mL (≈ 7.57 µM); MIC ([12]; Candida tropicalis): > 50 µg/mL; MIC ([13]; Candida albicans): > 50 µg/mL
4 | COC(=O)C1c2cc3c(c(O)c2C(OC2CC(N(C)C)C(OC4CC(O)C(O)C(C)O4)C(C)O2)CC1(C)O)C(=O)c1c(O)cccc1C3=O (stereo not shown) [Auramycin C] |  | 6.25 (≈ 9.11 µM) | 135 | 130 | 141 | 128 |  | 6.25 (≈ 9.11 µM) | > 50 |  | > 50 | > 50 | 6.25 (≈ 9.11 µM) | ~90 | > 50 | > 50 |  | 6.25 (≈ 9.11 µM) | 6.25 (≈ 9.11 µM) | MIC [7]: 6.25 µg/mL (≈ 9.11 µM)
5 | COC(=O)C1c2cc3c(c(O)c2C(OC2CC(N(C)C)C(OC4CC(O)C(O)C(C)O4)C(C)O2)CC1(O)CC(C)=O)C(=O)c1c(O)cccc1C3=O (stereo not shown) [Sulfurmycin C] |  | 6.25 (≈ 8.59 µM) | 131 | 141 | 138 | 141 |  | 6.25 (≈ 8.59 µM) | > 50 | 3.13 (≈ 4.3 µM) | > 50 | > 50 | 12.5 (≈ 17.2 µM) | ~90 | > 50 | > 50 |  | 6.25 (≈ 8.59 µM) | 6.25 (≈ 8.59 µM) | 
